Like-named read-outs stand apart in the source and are kept apart here.
Assays:
Type in all cases: in vivo
[1] = system: Viola tricolor (VIOTR); experiment: Post-emergence herbicidal action against VIOTR
Summary of the method: (§1)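 Rates were 320 g/ha or below, applied as aqueous WP/EC spray with 0.5% additive (600 l/ha) onto one-leaf-stage plants. About 3 weeks later in the greenhouse, damage was scored visually against untreated plants on a 0–100% scale, where 100% means plants died.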

[2] = system: Echinochloa crus-galli (ECHCG); experiment: Post-emergence herbicidal action against ECHCG
Summary of the method: as §1

[3] = system: Oryza sativa (ORYSA); conditions: crop plant compatibility
Summary of the method: (§2)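 Test crops were treated 2 to 3 weeks after sowing, once they reached one leaf, by spraying compound in water with 0.5% additive at 600 l/ha. Visual scoring compared them with untreated controls roughly 3 weeks on, and appendices a, b and c denote different doses.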

[4] = system: Zea mays (ZEAMX); conditions: for Post-emergence action against ZEAMX in % (crop plant compatibility): 20 g/ha, effect in comparison to untreated controls; for Post-emergence action against ZEAMX in %: crop plant compatibility, 80 g/ha, effect vs untreated controls
Summary of the method: as §2

[5] = system: Digitaria sanguinalis (DIGSA); experiment: Post-emergence herbicidal action against DIGSA; conditions: visual rating about 3 weeks after treatment
Description: Seeds of monocotyledonous and dicotyledonous weeds and crop plants are placed in sandy loam in plastic or organic planting pots, covered with soil and cultivated in a greenhouse under controlled growth conditions. 2 to 3 weeks after sowing, the test plants are treated at the one-leaf stage. The compounds of the invention, formulated in the form of wettable powders (WP) or as emulsion concentrates (EC), are then sprayed onto the green parts of the plants as aqueous suspension or emulsion with addition of 0.5% additive at a water application rate of 600 l/ha (converted). After the test plants have been kept in the greenhouse under optimum growth conditions for about 3 weeks, the activity of the preparations is rated visually in comparison to untreated controls. For example, 100% activity=the plants have died, 0% activity=like control plants.
Tables B1 to B13 below show the effects of selected compounds of the general formula (I) according to Table 1 on various harmful plants and at an application rate corresponding to 320 g/ha or lower, which were obtained by the experimental procedure mentioned above. The appendices “a”, “b” and “c” give differentiation by dosage used with otherwise the same harmful plants tested.

[6] = system: Setaria viridis (SETVI); experiment: Post-emergence herbicidal action against SETVI
Summary of the method: as §1

[7] = system: Alopecurus myosuroides (ALOMY); experiment: Post-emergence herbicidal action against ALOMY; conditions: visual rating about 3 weeks after treatment vs untreated controls (100% = plants have died, 0% = like control plants)
Summary of the method: as §1

[8] = system: Avena fatua (AVEFA); experiment: Post-emergence herbicidal action against AVEFA; conditions: visual rating about 3 weeks after treatment
Summary of the method: as §1

[9] = system: Pharbitis purpurea (PHBPU); experiment: Post-emergence herbicidal action against PHBPU
Summary of the method: as §1

[10] = system: Polygonum convolvulus (POLCO); experiment: Post-emergence herbicidal action against POLCO
Summary of the method: as §1

[11] = system: Lolium rigidum (LOLRI); experiment: Post-emergence herbicidal action against LOLRI
Summary of the method: as §1

[12] = system: Verconica persica (VERPE); experiment: Post-emergence herbicidal action against VERPE
Summary of the method: as §1

[13] = system: Amaranthus retroflexus (AMARE); experiment: Post-emergence herbicidal action against AMARE
Summary of the method: as §1

[14] = system: Setaria viridis (SETVI); experiment: Pre-emergence herbicidal action against SETVI
Summary of the method: (§3)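 Greenhouse pot trial: seeds sown, soil-covered, sprayed before emergence with compound in water (0.5% additive; 600 l/ha; ≤320 g/ha). Scoring visual, ~3 weeks, 0–100% scale vs untreated.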

[15] = system: Verconica persica (VERPE); experiment: Pre-emergence herbicidal action against VERPE; conditions: dosage 320 g/ha
Summary of the method: as §3

[16] = system: Abutilon theophrasti (ABUTH); experiment: Post-emergence herbicidal action against ABUTH; conditions: visual rating about 3 weeks after treatment vs untreated controls (100% = plants have died, 0% = like control plants)
Summary of the method: as §1

[17] = system: Pharbitis purpurea (PHBPU); experiment: Pre-emergence herbicidal action against PHBPU; conditions: dosage 320 g/ha
Summary of the method: as §3

[18] = system: Alopecurus myosuroides (ALOMY); experiment: Pre-emergence herbicidal action against ALOMY; conditions: scored visually after about 3 weeks, 100% = plants have died
Summary of the method: as §3

[19] = system: Matricaria inodora (MATIN); experiment: Pre-emergence herbicidal action against MATIN
Summary of the method: as §3

[20] = system: Amaranthus retroflexus (AMARE); experiment: Pre-emergence herbicidal action against AMARE; conditions: visual scoring after about 3 weeks vs untreated controls
Summary of the method: as §3

[21] = system: Avena fatua (AVEFA); experiment: Pre-emergence herbicidal action against AVEFA; conditions: visual scoring after about 3 weeks vs untreated controls
Summary of the method: as §3

[22] = system: Polygonum convolvulus (POLCO); experiment: Pre-emergence herbicidal action against POLCO; conditions: dosage 320 g/ha
Summary of the method: as §3

[23] = system: Lolium rigidum (LOLRI); experiment: Pre-emergence herbicidal action against LOLRI; conditions: dosage 320 g/ha
Summary of the method: as §3

[24] = system: Echinochloa crus-galli (ECHCG); experiment: Pre-emergence herbicidal action against ECHCG
Summary of the method: as §3

[25] = system: Matricaria inodora (MATIN); experiment: Post-emergence herbicidal action against MATIN; conditions: dosage 80 g/ha
Summary of the method: as §1

[26] = system: Viola tricolor (VIOTR); experiment: Pre-emergence herbicidal action against VIOTR; conditions: 320 g/ha, Viola tricolor
Summary of the method: as §3

[27] = 20 g/ha, effect vs untreated controls
[28] = 80 g/ha, effect in comparison to untreated controls

COC(=O)C(C)COC(=O)COc1nn(-c2ncccc2F)c(-c2ccc(F)nc2)c1C1CC1 (stereo not shown) [Example I-382]
20%: Post-emergence action against ZEAMX in % [4]
80%: Post-emergence action against VIOTR in % ([1]; 80 g/ha) | Post-emergence action against ECHCG in % ([2]; dosage 80 g/ha) | Post-emergence action against DIGSA in % ([5]; 80 g/ha) | Post-emergence action against PHBPU in % ([9]; dosage 80 g/ha) | Post-emergence action against PHBPU in % ([9]; dosage 320 g/ha) | Post-emergence action against POLCO in % ([10]; dosage 320 g/ha) | Post-emergence action against VERPE in % ([12]; 320 g/ha, VERPE) | Post-emergence action against VERPE in % ([12]; dosage 80 g/ha)
90%: Post-emergence action against VIOTR in % ([1]; 320 g/ha) | Post-emergence action against ECHCG in % ([2]; dosage 320 g/ha) | Post-emergence action against DIGSA in % ([5]; 320 g/ha) | Post-emergence action against SETVI in % ([6]; dosage 80 g/ha) | Post-emergence action against SETVI in % ([6]; dosage 320 g/ha) | Post-emergence action against ALOMY in % ([7]; 320 g/ha) | Post-emergence action against AVEFA in % ([8]; 80 g/ha) | Post-emergence action against AVEFA in % ([8]; 320 g/ha) | Post-emergence action against LOLRI in % ([11]; dosage 320 g/ha)
10%: Post-emergence action against ORYSA in % [3, 28]
0%: Post-emergence action against ORYSA in % [3, 27] | Post-emergence action against ZEAMX in % (crop plant compatibility) [4]

COC(=O)C(C)OC(=O)C(C)Oc1nn(-c2ccccn2)c(-c2ccc(F)nc2)c1Cl (stereo not shown) [Example I-299]
20%: Post-emergence action against ORYSA in % [3, 28]
90%: Post-emergence action against VIOTR in % ([1]; 320 g/ha) | Post-emergence action against ECHCG in % ([2]; dosage 320 g/ha) | Post-emergence action against DIGSA in % ([5]; 320 g/ha) | Post-emergence action against SETVI in % ([6]; dosage 320 g/ha) | Post-emergence action against ALOMY in % ([7]; 320 g/ha) | Post-emergence action against PHBPU in % ([9]; dosage 320 g/ha)
80%: Post-emergence action against VIOTR in % ([1]; 80 g/ha) | Post-emergence action against ECHCG in % ([2]; dosage 80 g/ha) | Post-emergence action against DIGSA in % ([5]; 80 g/ha) | Post-emergence action against ALOMY in % ([7]; 80 g/ha) | Post-emergence action against AVEFA in % ([8]; 80 g/ha) | Post-emergence action against AVEFA in % ([8]; 320 g/ha) | Post-emergence action against POLCO in % ([10]; dosage 320 g/ha) | Post-emergence action against AMARE in % ([13]; 320 g/ha, visual rating about 3 weeks after treatment) | Post-emergence action against LOLRI in % ([11]; dosage 80 g/ha) | Post-emergence action against LOLRI in % ([11]; dosage 320 g/ha) | Post-emergence action against VERPE in % ([12]; 320 g/ha, VERPE) | Post-emergence action against VERPE in % ([12]; dosage 80 g/ha)
10%: Post-emergence action against ORYSA in % [3, 27] | Post-emergence action against ZEAMX in % [4]
0%: Post-emergence action against ZEAMX in % (crop plant compatibility) [4]

CCOC(=O)COc1nn(-c2ccccn2)c(-c2ccc(F)nc2)c1Cl [Example I-100]
80%: Post-emergence action against ABUTH in % ([16]; 80 g/ha) | Post-emergence action against SETVI in % ([6]; dosage 80 g/ha) | Pre-emergence action against MATIN in % ([19]; dosage 80 g/ha) | Pre-emergence action against MATIN in % ([19]; dosage 320 g/ha) | Pre-emergence action against AVEFA in % ([21]; 80 g/ha) | Post-emergence action against LOLRI in % ([11]; dosage 80 g/ha) | Post-emergence action against VERPE in % ([12]; dosage 80 g/ha) | Pre-emergence action against ECHCG in % ([24]; dosage 80 g/ha)
100%: Pre-emergence action against SETVI in % ([14]; dosage 320 g/ha) | Pre-emergence action against VERPE in % [15] | Post-emergence action against ALOMY in % ([7]; 80 g/ha) | Pre-emergence action against ALOMY ([18]; 80 g/ha) | Pre-emergence action against ALOMY ([18]; 320 g/ha) | Post-emergence action against AVEFA in % ([8]; 80 g/ha) | Pre-emergence action against AMARE in % ([20]; 320 g/ha) | Pre-emergence action against LOLRI in % [23] | Pre-emergence action against ECHCG in % ([24]; dosage 320 g/ha)
0%: Post-emergence action against ORYSA in % [3, 27]
10%: Post-emergence action against ZEAMX in % (crop plant compatibility) [4]
90%: Pre-emergence action against SETVI in % ([14]; dosage 80 g/ha) | Post-emergence action against ECHCG in % ([2]; dosage 80 g/ha) | Pre-emergence action against PHBPU in % [17] | Post-emergence action against PHBPU in % ([9]; dosage 80 g/ha) | Post-emergence action against POLCO in % ([10]; dosage 80 g/ha) | Pre-emergence action against AMARE in % ([20]; 80 g/ha) | Pre-emergence action against AVEFA in % ([21]; 320 g/ha) | Post-emergence action against AMARE in % ([13]; 80 g/ha, visual rating about 3 weeks after treatment vs untreated controls (100% = plants have died, 0% = like control plants)) | Pre-emergence action against POLCO in % [22] | Post-emergence action against MATIN in % [25] | Pre-emergence action against VIOTR in % [26]

C[C@@H](Oc1nn(-c2ccccn2)c(-c2ccc(F)nc2)c1Br)C(=O)O [Example I-260]
80%: Post-emergence action against ABUTH in % ([16]; 320 g/ha) | Post-emergence action against AVEFA in % ([8]; 80 g/ha) | Post-emergence action against AVEFA in % ([8]; 320 g/ha) | Post-emergence action against PHBPU in % ([9]; dosage 320 g/ha) | Post-emergence action against POLCO in % ([10]; dosage 80 g/ha) | Post-emergence action against POLCO in % ([10]; dosage 320 g/ha) | Post-emergence action against LOLRI in % ([11]; dosage 320 g/ha) | Post-emergence action against VERPE in % ([12]; 320 g/ha, VERPE)
10%: Post-emergence action against ORYSA in % [3, 27] | Post-emergence action against ORYSA in % [3, 28]
90%: Post-emergence action against ECHCG in % ([2]; dosage 320 g/ha) | Post-emergence action against DIGSA in % ([5]; 80 g/ha) | Post-emergence action against DIGSA in % ([5]; 320 g/ha) | Post-emergence action against SETVI in % ([6]; dosage 320 g/ha) | Post-emergence action against ALOMY in % ([7]; 320 g/ha)

From patent US20240041042A1, “1-(PYRIDYL)-5-AZINYLPYRAZOLE DERIVATIVES, AND THEIR USE FOR CONTROL OF UNDESIRED PLANT GROWTH” (Bayer Aktiengesellschaft, priority 2020, published 2024)
